For 13 molecules, Papp results are on record in patent US20230096766A1, “AMINO ACID HAVING FUNCTIONAL GROUP CAPABLE OF INTERMOLECULAR HYDROGEN BONDING, PEPTIDE COMPOUND CONTAINING SAME AND METHOD FOR PRODUCTION THEREOF” (Chugai Seiyaku Kabushiki Kaisha, priority 2018, published 2023).

*1 amine or outer side, *2 acyl side, *3 side chain or, on linkers, in order; H or OH if unused. Where a SMILES comes first, the peptide text is derived from it. Bridges are numbered along the chain shown (N, C = ends). [ ]: non-standard residue; d: D form. The star is where a group is joined. ξ: configuration not given here. X19 = CC(C)C[C@H](NN(C)[C@H](Cc1ccccc1)N(C)[*:1])C(=O)[*:2]; Phe(3-OMe,4-CONHMe) = CNC(=O)c1ccc(C[C@H](N)C(=O)O)cc1OC; NMeAbu(4-morpholino) = CN[C@@H](CCN1CCOCC1)C(=O)O; NMePhe(3-Cl) = CN[C@@H](Cc1cccc(Cl)c1)C(=O)O; Tyr(3-OMe) = COc1cc(C[C@H](N)C(=O)O)ccc1O; NMehPhe = CN[C@@H](CCc1ccccc1)C(=O)O; X9 = O=C([C@@H](CN[*:1])COCCO)[*:2]; Propyl(2,2-Me2,3-OH) = CC(C)(CO)C*; X6 = O=C([C@H](CCCCO)N[*:1])[*:2]; NMeF = CN[C@@H](Cc1ccccc1)C(=O)O; ξThr(3R) = C[C@@H](O)C(N)C(=O)O; NMeD = CN[C@@H](CC(=O)O)C(=O)O; CH2CH(OH)CF3 = OC(C*)C(F)(F)F; CH2CONHtBu = CC(C)(C)NC(=O)C*; NMeL = CN[C@@H](CC(C)C)C(=O)O; NMeV = CN[C@H](C(=O)O)C(C)C; NMeAbu = CC[C@H](NC)C(=O)O; NMeA = CN[C@@H](C)C(=O)O; Piperidide = C1CCN(*)CC1; dAbu = CC[C@@H](N)C(=O)O; NBuGly = CCCCNCC(=O)O; Isopentyl = CC(C)CC*; NPrGly = CCCNCC(=O)O; ξS = NC(CO)C(=O)O; Sar = CNCC(=O)O; tBu = CC(C)(C)* A value given as a limit tells only on which side of the number the result lay.

One data set in a line: in vitro. As to conditions: human, Caco-2, Caco-2.
Consider `CCCCN1CC(=O)N(C)[C@@H](C(C)C)C(=O)N[C@H](C(=O)N2CCCCC2)CC(=O)N(C)[C@@H](C)C(=O)N[C@@H](CC(C)C)C(=O)N(C)[C@@H](CC(C)C)C(=O)N(C)[C@@H](Cc2ccccc2)C(=O)N[C@@H](CC(C)C)C(=O)N(C)[C@@H](Cc2ccccc2)C(=O)N(C)[C@@H](CCN2CCOCC2)C(=O)N[C@@H]([C@@H](C)O)C1=O` [pd453] ([NMeA]L[NMeL][NMeF]L[NMeF][NMeAbu(4-morpholino)]T[NBuGly][NMeV]D-Piperidide; lactam N-11), for which the Papp amounted to 2.3 ×10⁻⁶ cm/s.

The same data set, now with this note: human, Caco-2, Caco-2 (cm/sec).
`CCCN1CC(=O)N(C)[C@@H](CC(C)C)C(=O)N[C@@H](COCCC(C)C)C(=O)N(C)[C@@H](Cc2ccccc2)C(=O)N(C)[C@@H](CC(C)C)C(=O)N[C@H](C(=O)N2CCCCC2)CC(=O)N[C@H](CC)C(=O)N(C)[C@@H](CCc2ccccc2)C(=O)N[C@@H](CCCCO)C(=O)N(C)[C@@H](CC(C)C)C(=O)N[C@@H]([C@@H](C)O)C1=O` [Compound B01] ([dAbu][NMehPhe][X6][NMeL]T[NPrGly][NMeL]S(Isopentyl)[NMeF][NMeL]D-Piperidide; lactam N-11) yielded an apparent permeability (Papp) of less than 0.11 ×10⁻⁶ cm/s.
Same read-out and setting: as for `CCCCN1CC(=O)N(C)[C@@H](CC(C)C)C(=O)N[C@@H](COC(C)(C)C)C(=O)N(C)[C@@H](CC(C)C)C(=O)N(C)[C@@H](CC)C(=O)N[C@H](C(=O)N2CCCCC2)CC(=O)N[C@H](CC(C)C)C(=O)N(C)[C@@H](Cc2ccccc2)C(=O)N[C@@H](Cc2ccc(O)cc2)C(=O)N(C)[C@@H](CC(C)C)C(=O)N[C@@H]([C@@H](C)O)C1=O` [Compound F02] ([dL][NMeF]Y[NMeL]T[NBuGly][NMeL]S(tBu)[NMeL][NMeAbu]D-Piperidide; lactam N-11), the figure is 0.04 ×10⁻⁶ cm/s; as for `CCCN1CC(=O)N(C)[C@@H](C)C(=O)N[C@H](C(=O)N2CCCCC2)CC(=O)N(C)[C@@H](CC(C)C)C(=O)N[C@@H](Cc2ccccc2)C(=O)N(C)[C@@H](CC(C)C)C(=O)N(C)[C@@H](CC(C)C)C(=O)N[C@@H](COCC(=O)NC(C)(C)C)C(=O)N(C)[C@@H](CCc2ccccc2)C(=O)N(C)[C@@H](CC(C)C)C(=O)N[C@@H]([C@@H](C)O)C1=O` [AP15] ([NMeL]F[NMeL][NMeL]S(CH2CONHtBu)[NMehPhe][NMeL]T[NPrGly][NMeA]D-Piperidide; lactam N-11), 0.86 ×10⁻⁶ cm/s.
Still for that read-out and setting: with `CCCCN1CC(=O)N(C)[C@@H](CC(C)C)C(=O)NC[C@@H](COCCO)C(=O)N(C)[C@@H](Cc2ccccc2)C(=O)N(C)[C@@H](CC(C)C)C(=O)N[C@H](C(=O)N2CCCCC2)CC(=O)N[C@H](CC(C)C)C(=O)N(C)[C@@H](CC(C)C)C(=O)N[C@@H](Cc2ccccc2)C(=O)N(C)[C@@H](CC(C)C)C(=O)N[C@@H]([C@@H](C)O)C1=O` [AP128] ([dL][NMeL]F[NMeL]T[NBuGly][NMeL][X9][NMeF][NMeL]D-Piperidide; lactam N-11) the figure was 0.78 ×10⁻⁶ cm/s; with `CC(C)C[C@@H]1NN(C)[C@H](Cc2ccccc2)N(C)C(=O)[C@@H](C(C)C)NC(=O)C[C@@H](C(=O)N2CCCCC2)NC(=O)[C@H](CC(C)C)N(C)C(=O)[C@H](CC(C)C)N(C)C(=O)[C@H](Cc2ccc(O)cc2)NC(=O)[C@H](CC(C)C)N(C)C(=O)CN(C)C(=O)[C@H]([C@@H](C)O)NC(=O)[C@H](CC(C)C)N(C)C1=O` [Compound F01] ([dV][X19][NMeL]T[Sar][NMeL]Y[NMeL][NMeL]D-Piperidide; lactam N-10), 0.32 ×10⁻⁶ cm/s.
The same measure, in the same setting: with `CC[C@H]1C(=O)N[C@@H](Cc2ccc(O)c(OC)c2)C(=O)N(C)[C@@H](CC(C)C)C(=O)N(C)[C@@H](CC(C)C)C(=O)N[C@@H](C(C)C)C(=O)N(C)[C@@H](Cc2ccccc2)C(=O)N(C)[C@@H](CC(C)C)C(=O)N[C@@H]([C@@H](C)O)C(=O)N(C)CC(=O)N(C)[C@@H](CC(C)C)C(=O)N[C@H](C(=O)N2CCCCC2)CC(=O)N1C` [Compound E06] ([NMeAbu][Tyr(3-OMe)][NMeL][NMeL]V[NMeF][NMeL]T[Sar][NMeL]D-Piperidide; lactam N-11) the figure was 0.97 ×10⁻⁶ cm/s; with `CC(C)C[C@@H]1NC(=O)[C@H](Cc2ccccc2)N(C)C(=O)[C@H](COC(C)(C)C)NC(=O)[C@H](Cc2ccccc2)N(C)C(=O)[C@H](C)N(C)C(=O)[C@H](CC(C)C)N(C)C(=O)[C@H]2CCCN2C(=O)C[C@@H](C(=O)N2CCCCC2)N(C)C(=O)[C@H](Cc2ccccc2)N(C)C(=O)[C@H]([C@@H](C)O)NC(=O)[C@H](C(C)C)N(C)C1=O` [pd219] ([dP][NMeL][NMeA][NMeF]S(tBu)[NMeF]L[NMeV]T[NMeF][NMeD]-Piperidide; lactam N-11), 1.1 ×10⁻⁶ cm/s; with `CC[C@H]1C(=O)N[C@@H](CC(C)C)C(=O)N(C)[C@@H](CC(C)C)C(=O)N(C)[C@@H](Cc2ccccc2)C(=O)NC(COCC(C)(C)CO)C(=O)N(C)[C@@H](Cc2ccccc2)C(=O)N(C)[C@@H](CC(C)C)C(=O)N[C@@H]([C@@H](C)O)C(=O)N(C)CC(=O)N(C)[C@@H](CC(C)C)C(=O)N[C@H](C(=O)N2CCCCC2)CC(=O)N1C` (stereo partly drawn) [AP122] ([NMeAbu]L[NMeL][NMeF][ξS](Propyl(2,2-Me2,3-OH))[NMeF][NMeL]T[Sar][NMeL]D-Piperidide; lactam N-11), 2.9 ×10⁻⁶ cm/s.
`CCCCN1CC(=O)N(C)[C@@H](CC(C)C)C(=O)N[C@@H](Cc2ccc(C(=O)NC)c(OC)c2)C(=O)N(C)[C@@H](CC(C)C)C(=O)N(C)[C@@H](CC(C)C)C(=O)N[C@H](C(=O)N2CCCCC2)CC(=O)N[C@H](CC(C)C)C(=O)N(C)[C@@H](Cc2ccccc2)C(=O)N[C@@H](C(C)C)C(=O)N(C)[C@@H](CC(C)C)C(=O)N[C@@H]([C@@H](C)O)C1=O` [AP28] ([dL][NMeF]V[NMeL]T[NBuGly][NMeL][Phe(3-OMe,4-CONHMe)][NMeL][NMeL]D-Piperidide; lactam N-11) registered an apparent permeability (Papp) of 0.38 ×10⁻⁶ cm/s.
`CCCCN1CC(=O)N(C)[C@@H](CC(C)C)C(=O)N[C@@H](COC(C)(C)C)C(=O)N(C)[C@@H](Cc2ccccc2)C(=O)N(C)[C@@H](CC(C)C)C(=O)N[C@H](C(=O)N2CCCCC2)CC(=O)N[C@H](C(C)C)C(=O)N(C)[C@@H](C(C)C)C(=O)N[C@@H](Cc2ccc(C(=O)NC)c(OC)c2)C(=O)N(C)[C@@H](CC(C)C)C(=O)N[C@@H]([C@@H](C)O)C1=O` [AP27] ([dV][NMeV][Phe(3-OMe,4-CONHMe)][NMeL]T[NBuGly][NMeL]S(tBu)[NMeF][NMeL]D-Piperidide; lactam N-11) returned an apparent permeability coefficient (Papp) of 0.91 ×10⁻⁶ cm/s.

The data set is the same for the next values; noted with them: human, Caco-2, Caco-2 (cm/sec) Papp.
`CC(C)C[C@@H]1NC(=O)[C@H](Cc2ccccc2)N(C)C(=O)C([C@@H](C)O)NC(=O)[C@H](Cc2ccccc2)N(C)C(=O)CN(C)C(=O)[C@H](Cc2ccccc2)NC(=O)[C@H](CC(C)C)N(C)C(=O)[C@H](CC(C)C)NC(=O)[C@H](Cc2ccccc2)N(C)C(=O)[C@H](C)N(C)C(=O)C[C@@H](C(=O)N2CCCCC2)NC1=O` (stereo partly drawn) [pd231] ([NMeA][NMeF]L[NMeL]F[Sar][NMeF][ξThr(3R)][NMeF]LD-Piperidide; lactam N-11) displayed an apparent permeability coefficient (Papp) of 0.21 ×10⁻⁶ cm/s.

Still in this data set, the particulars now being: human, Caco-2, Caco-2 (membrane permeability).
In the case of `CCCCN1CC(=O)N(C)[C@@H](Cc2ccccc2)C(=O)N(C)[C@@H](CC(C)C)C(=O)N[C@@H](COC(C)(C)C)C(=O)N(C)[C@@H](CC(C)C)C(=O)N[C@H](C(=O)N2CCCCC2)CC(=O)N(C)CC(=O)N(C)[C@@H](Cc2cccc(Cl)c2)C(=O)N[C@@H](COCC(O)C(F)(F)F)C(=O)N(C)[C@@H](CC(C)C)C(=O)N[C@@H]([C@@H](C)O)C1=O` (stereo partly drawn) [Compound C06] ([Sar][NMePhe(3-Cl)]S(CH2CH(OH)CF3)[NMeL]T[NBuGly][NMeF][NMeL]S(tBu)[NMeL]D-Piperidide; lactam N-11), the apparent permeability (Papp) was 0.48 ×10⁻⁶ cm/s.
